Experiment [1] can be described thus: Modulation of full length SMN2 mRNA (unknown origin) splicing by luciferase reporter gene assay. The arrangement: species or system Homo sapiens. In general terms: In a reporter assay the amount or activity of a reporter protein is the signal.
The target of experiment [2] is T1, Epidermal growth factor receptor substrate 15 (Homo sapiens, UniProt P42566).
T1 sequence (P42566 whole entry): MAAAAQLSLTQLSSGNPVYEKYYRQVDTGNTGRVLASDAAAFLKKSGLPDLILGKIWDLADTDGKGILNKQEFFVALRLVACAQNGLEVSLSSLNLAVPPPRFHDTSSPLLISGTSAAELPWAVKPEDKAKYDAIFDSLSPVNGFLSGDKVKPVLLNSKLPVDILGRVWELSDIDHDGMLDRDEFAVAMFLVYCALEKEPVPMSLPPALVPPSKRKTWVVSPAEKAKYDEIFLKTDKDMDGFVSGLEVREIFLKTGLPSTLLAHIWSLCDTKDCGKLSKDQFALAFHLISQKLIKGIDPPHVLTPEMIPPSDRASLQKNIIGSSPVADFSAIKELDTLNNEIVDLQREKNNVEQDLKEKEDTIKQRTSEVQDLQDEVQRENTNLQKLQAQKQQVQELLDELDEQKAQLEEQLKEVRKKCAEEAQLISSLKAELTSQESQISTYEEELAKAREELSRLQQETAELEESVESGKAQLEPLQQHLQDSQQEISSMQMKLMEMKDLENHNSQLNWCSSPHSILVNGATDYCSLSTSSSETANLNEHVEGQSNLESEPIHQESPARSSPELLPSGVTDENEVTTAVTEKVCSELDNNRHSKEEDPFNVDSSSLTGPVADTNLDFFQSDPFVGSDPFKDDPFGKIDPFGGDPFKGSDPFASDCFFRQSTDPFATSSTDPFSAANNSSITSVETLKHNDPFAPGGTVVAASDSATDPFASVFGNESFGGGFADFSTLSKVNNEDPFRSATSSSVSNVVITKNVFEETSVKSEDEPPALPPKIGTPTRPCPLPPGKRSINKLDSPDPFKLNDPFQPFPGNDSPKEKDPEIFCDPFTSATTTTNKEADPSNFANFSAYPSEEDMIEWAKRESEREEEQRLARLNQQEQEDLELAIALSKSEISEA
As to the kind of experiment: Inhibition of stonin-2 binding to Eps15 (unknown origin).

The species named for experiment [3] is Homo sapiens. Put plainly: Selectivity ratio of Ki for human MC5R expressed in HEK cell membranes to Ki for human MC4R expressed in HEK cell membranes. Format: cell-based.
Experiment [4] is filed under the species Homo sapiens. Put plainly: Selectivity ratio of Ki for human MC2R expressed in HEK cell membranes to Ki for human MC4R expressed in HEK cell membranes. It counts as cell-based.
For experiment [5], the species on record is Homo sapiens. Put plainly: Selectivity ratio of Ki for human MC1R expressed in HEK cell membranes to Ki for human MC4R expressed in HEK cell membranes. It counts as cell-based.
The target in the next experiment is 80S Ribosome. Put plainly: Inhibition of human 80S ribosome-mediated PCSK9 translation expressed in CHO-K1 cells assessed as reduction in PCSK9 secretion. Format: cell-based.
For another experiment, the target named is Plasma kallikrein (Homo sapiens, UniProt P03952). As to the kind of experiment: Binding affinity to human plasma kallikrein.
Chain of Plasma kallikrein (P03952 20-390 limits assumed): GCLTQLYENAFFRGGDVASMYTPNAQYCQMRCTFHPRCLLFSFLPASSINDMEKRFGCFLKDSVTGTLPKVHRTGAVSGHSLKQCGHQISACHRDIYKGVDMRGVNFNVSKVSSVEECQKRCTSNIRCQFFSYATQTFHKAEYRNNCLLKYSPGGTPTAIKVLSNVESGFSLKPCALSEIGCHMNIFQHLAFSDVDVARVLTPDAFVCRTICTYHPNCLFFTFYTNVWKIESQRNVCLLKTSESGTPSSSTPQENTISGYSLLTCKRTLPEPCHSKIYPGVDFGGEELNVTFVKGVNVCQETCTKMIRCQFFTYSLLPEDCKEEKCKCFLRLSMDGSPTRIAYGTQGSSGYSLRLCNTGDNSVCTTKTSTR
Chain of Plasma kallikrein (P03952 391-638 limits assumed): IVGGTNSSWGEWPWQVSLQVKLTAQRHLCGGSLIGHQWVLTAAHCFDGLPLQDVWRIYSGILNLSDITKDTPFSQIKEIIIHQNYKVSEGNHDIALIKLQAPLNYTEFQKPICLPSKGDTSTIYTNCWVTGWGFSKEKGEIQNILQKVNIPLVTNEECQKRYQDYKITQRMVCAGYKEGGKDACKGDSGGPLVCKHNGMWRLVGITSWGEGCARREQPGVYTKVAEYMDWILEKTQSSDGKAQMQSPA

Numbered stars: 1 amine (or outer) side, 2 acyl side, 3 side chain; on linkers, the order of the positions; unused ones are H or OH. Bridge positions count the residues as written; N and C are the ends. Peptide text beside a SMILES is read from it. TBMB = c1c(C[*:1])cc(C[*:3])cc1C[*:2]

For the compound `CN(c1ccc(-c2ccc(-c3cn[nH]c3)cc2O)nn1)C1CC(C)(C)NC(C)(C)C1`, in experiment [1], the EC50 turned out to be 5 nM.
The compound `C[C@@H]1NC(=O)[C@H](CCCNC(=N)N)NC(=O)[C@H](Cc2c[nH]c3ccccc23)NC(=O)[C@@H]2CCCN2C(=O)[C@H](N)CSCc2cccc(c2)CSC[C@@H](C(=O)O)NC(=O)[C@H](Cc2ccccc2)NC(=O)[C@@H]2CCCN2C(=O)[C@H](CC(N)=O)NC(=O)[C@H]([C@@H](C)O)NC1=O` registered a Kd in experiment [2] of 370 nM.
As for `CC(C)C[C@@H]1NC(=O)CNC(=O)[C@H](CC(N)=O)NC(=O)[C@H](CCCNC(=N)N)NC(=O)[C@H]([C@@H](C)O)NC(=O)[C@@H]2CSSC[C@@H]3NC(=O)[C@H]([C@@H](C)O)NC(=O)CNC(=O)CNC(=O)[C@H](C(C)C)NC(=O)[C@@H]4CSSC[C@H](NC(=O)[C@H]([C@@H](C)O)NC(=O)[C@H](CSSC[C@H](NC(=O)[C@H](C(C)C)NC(=O)[C@@H]5CCCN5C1=O)C(=O)NCC(=O)N[C@@H](CCC(=O)O)C(=O)N[C@@H]([C@@H](C)O)C(=O)N4)NC(=O)CNC(=O)[C@@H]1CCCN1C(=O)[C@H]([C@@H](C)O)NC(=O)[C@H](CC(N)=O)NC3=O)C(=O)N[C@@H](CO)C(=O)N[C@@H](Cc1c[nH]c3ccccc13)C(=O)N1CCC[C@H]1C(=O)N[C@@H](C(C)C)C(=O)N2`, the Ratio Ki in the experiment filed under Homo sapiens [3], in the experiment filed under Homo sapiens [4] and in the experiment filed under Homo sapiens [5] was 100 to 300 in each case.
Take `COc1ccc(CCC(=O)N(c2nccc3c2CC=CC3)[C@@H]2CCCNC2)cc1`: the EC50 on 80S Ribosome was found to be 2200 nM.
For the compound `CC(C)C[C@@H]1NC(=O)[C@H](C)NC(=O)[C@H](CCC(=O)O)NC(=O)[C@H](CC(=O)O)NC(=O)[C@H](C)NC(=O)[C@@H]2CCCN2C(=O)[C@@H]2CSCc3cc(cc(c3)CSC[C@@H](C(=O)NCC(=O)O)NC1=O)CSC[C@H](NC(=O)[C@H](C)N)C(=O)N[C@@H](CO)C(=O)N[C@@H](CC(=O)O)C(=O)N[C@@H](CCCNC(=N)N)C(=O)N[C@@H](Cc1ccccc1)C(=O)N[C@@H](CCCNC(=N)N)C(=O)N[C@@H](CC(N)=O)C(=O)N2` (H-ACSDRFRNCPADEALCG-OH; linker 2-9-16 via TBMB), the Kd on Plasma kallikrein is 20 nM.

In general, EC50 refers to the midpoint of the concentration-response curve. By Kd is commonly meant the free concentration of one partner at which half of the binding sites on the other are occupied at equilibrium, for simple one-to-one binding. A lower Kd goes with a tighter complex.

(Values after ChEMBL document CHEMBL4382194, “New Modalities, Technologies, and Partnerships in Probe and Lead Generation: Enabling a Mode-of-Action Centric Paradigm” (J Med Chem, 2018).)
